From US9227955B2, “Compound having angiogenesis inhibitory activity, method for preparing same, and pharmaceutical composition comprising same” (Boryung Pharmaceutical Co., Ltd., priority 2011, dated 2016)
Marks after values point to notes of the source that are not given here.

test system: HUVECs (human umbelical vein endothelial cells); experiment: Transwell assay, VEGF-induced cell migration in HUVECs; assay type: cell-based; conditions: 25 μM, 10 ng/ml VEGF 24 hrs, n=3
Method: To examine the inhibitory effect of the compounds obtained in the Examples on VEGF (Vascular endothelial growth factor)-induced cell migration in HUVECs (human umbelical vein endothelial cells), a transwell assay was performed as follows.
HUVECs, provided from ATCC (American Type Culture Collection), were incubated in EGM-2 (Endothelial growth Medium-2 Medium) including 10% FBS, penicillin (100 unit/ml) and 100 μg/ml streptomycin sulfate plus various growth factors at 37° C. in an atmosphere of 5% CO2. After the change of the medium with growth factor-free EBM-2 (Endothelial Basal Medium-2 Medium), the cells were subjected to transwell assay.
After for 24 hours, the cells were fixed for 1 min with ethanol and were stained with a dye. Cell migration was evaluated by counting cells which moved through the pores.
In addition, cells were treated with Compound No. 250 (Example 26) at various concentrations given in Table 3, and assayed for cell migration, as conducted with Compounds 103, 110, 218, 273, 275, 276, 290, 312, 428, 442, and 509. The results were compared with those obtained after non-treatment (no treat) or treatment with 10 ng/mL VEGF.
Results were expressed as average numbers (n=3) of HUVECs which moved cross the membrane. Test results are summarized in Table 3 for compounds 103, 110, 218, 273, 275, 276, 290, 312, 428, 442, and 509, and in Table 4 for compound 250.

For O=C(Nc1ccc(Oc2ccccc2)cc1)c1cccnc1NC1CCN(Cc2ccccc2)CC1 [Compound 110, 2-(1-Benzylpiperidin-4-ylamino)-N-(4-phenoxyphenyl)nicotinamide], the “No. of migration cells/field” value was 10*** cells/field.
With O=C(Nc1cccc(Cl)c1)c1cccnc1NC1CCN(CCO)CC1 [Compound 218, N-(3-Chlorophenyl)-2-[1-(2-hydroxyethyl)piperidin-4-ylamino]nicotinamide] the “No. of migration cells/field” value was 7.5*** cells/field.
For COC(=O)c1c(NC(=O)c2cccnc2NC2CCCN(Cc3ccccc3)C2)sc2c1CCNC2 (centres unmarked) [Compound 509, 2-{[2-(1-benzylpiperidin-3-ylamino)pyridine-3-carbonyl]amino}-4,5,6,7-tetrahydrothieno[2,3-c]pyridine-3-carboxylic acid methyl ester], the “No. of migration cells/field” value was 7*** cells/field.
For Cc1cnc(NC(=O)c2cccnc2NC2CCN(Cc3ccccc3)CC2)s1 [Compound 428, 2-(1-Benzylpiperidin-4-ylamino)-N-(5-methylthiazol-2-yl)nicotinamide], the “No. of migration cells/field” value was 14.5*** cells/field.
For COC(=O)c1c(NC(=O)c2cccnc2NC2CCN(Cc3ccccc3)CC2)sc2c1CCNC2 [Compound 442, 2-{[2-(1-Benzylpiperidin-4-ylamino)pyridine-3-carbonyl]amino}-4,5,6,7-tetrahydro-thieno[2,3-c]pyridine-3-carboxylic acid methyl ester], the “No. of migration cells/field” value was 15*** cells/field.

same assay, conditions: 50 μM, 10 ng/ml VEGF 24 hrs, n=3

In the case of CC(C)(C)OC(=O)N1CCC[C@H](Nc2ncccc2C(=O)Nc2cccc(Cl)c2)C1 [Compound 276, (S)—N-(3-chlorophenyl)-2-(1-tert-butoxycarbamoylpiperidin-3-ylamino)nicotinamide], the “No. of migration cells/field” value is reported as 12.5*** cells/field.
With O=C(Nc1cccc(Cl)c1)c1cccnc1SC1CCN(Cc2ccccc2)CC1 [Compound 290, 2-(1-Benzylpiperidin-4-ylsulfanyl)-N-(3-chlorophenyl)nicotinamide] the “No. of migration cells/field” value was 14.5*** cells/field.
In the case of O=C(Nc1cccc(Cl)c1)c1cccnc1N[C@H]1CCCN(Cc2ccccc2)C1 [Compound 273, (S)-2-(1-benzylpiperidin-3-ylamino)-N-(3-chlorophenyl)nicotinamide], the “No. of migration cells/field” value is reported as 12*** cells/field.
For O=C(Nc1cccc(Cl)c1)c1cc(F)c(Cl)nc1NC1CCN(CCO)CC1 [Compound 312, 6-chloro-N-(3-chlorophenyl)-5-fluoro-2-[1-(2-hydroxyethyl)piperidin-4-ylamino]nicotinamide], the “No. of migration cells/field” value was 14*** cells/field.
In the case of O=C(Nc1cccc(Cl)c1)c1cccnc1N[C@H]1CCCNC1 [Compound 275, (S)—N-(3-chlorophenyl)-2-(3-piperidylamino)nicotinamide], the “No. of migration cells/field” value is reported as 11*** cells/field.

test system: not listed separately; experiment: Cell viability MTS assay (cytotoxicity); assay type: cell-based; conditions: human; A-431 cells, 48 hrs incubation; read-out: IC50, MTS assay for cytotoxicity against A-431
Method: A-431 ([…], human, ATCC CRL-1555™) cells grown in DMEM (Dulbeco's Modified Eagle's Medium, Gibco #11885) were seeded at a density of 1×10^4 cells/well into 96-well plates and incubated at 37° C. for 18 hrs under the supply of 5% CO2 until the cells stably adhered to the bottom. […] After incubation for 48 hrs in the presence of the test compound, the cells were assayed for viability.
The cells in each well was added with 21 μl of a mixture of 20:1 (v/v) of an MTS solution [(3-(4,5-dimethylthiazol-2-yl)-5-(3-carboxymethoxyphenyl)-2-(4-sulfophenyl)-2H-tetrazolium, Promega, Cat#65421; 2 mg/ml] and a PMS solution [Phenazine methosulfate, Sigma #P9625; 1 mg/ml], and incubated for 2 hrs, followed by measuring absorbance at 490 nm on a microplate reader (Molecular device, spectraMax M2). Relative to the control (media), viability by drug concentration was determined from the measurements of formazan, and the results are given in Table 2, below.

Point of comparison: O=C(NC(Cc1ccccc1)c1ccccc1)c1cccnc1NC1CCN(Cc2ccccc2)CC1 (centres unmarked) [Compound 426, 2-(1-Benzylpiperidin-4-ylamino)-N-(1,2-diphenylethyl)nicotinamide], IC50 at 48 h 39.7 µM. Against it:
- O=C(Nc1cccc(Cl)c1)c1ccc(Cl)nc1NC1CCN(CCO)CC1 [Compound 311] — 1.6-fold higher, 62.3 µM
- O=C(Nc1ccc(Oc2ccccc2)cc1)c1cccnc1Nc1ccc(Oc2ccccc2)cc1 [Compound 111, 2-(4-Phenoxyanilino)-N-(4-phenoxyphenyl)nicotinamide] — 3.4-fold higher, 135 µM
- O=C(Nc1cccc(Cl)c1)c1cc(F)c(Cl)nc1NC1CCN(Cc2ccccc2)CC1 [Compound 302, 2-(1-benzylpiperidin-4-ylamino)-6-chloro-N-(3-chlorophenyl)-5-fluoronicotinamide] — within 1.5-fold, 38.1 µM
- O=C(Nc1ccc(Oc2ccccc2)cc1)c1cccnc1NC1CCN(Cc2ccccc2)CC1 [Compound 110, 2-(1-Benzylpiperidin-4-ylamino)-N-(4-phenoxyphenyl)nicotinamide] — 1.8-fold lower, 22.2 µM
- O=C(Nc1cccc(Cl)c1)c1ccc(Cl)nc1NC1CCN(Cc2ccccc2)CC1 [Compound 301, 2-(1-Benzylpiperidin-4-ylamino)-6-chloro-N-(3-chlorophenyl)nicotinamide] — 1.7-fold higher, 67.6 µM
- CC(C)(C)OC(=O)N1CCC(Nc2ncccc2C(=O)Nc2cccc(Cl)c2)CC1 [Compound 208, N-(3-Chlorophenyl)-2-(1-tert-butoxycarbamoylpiperidin-4-ylamino)nicotinamide] — 2.2-fold higher, 86.1 µM
- O=C(Nc1cccc(Cl)c1)c1cccnc1N[C@H]1CCCN(CCO)C1 [Compound 274, (S)—N-(3-chlorophenyl)-2-[1-(2-hydroxyethyl)piperidin-3-ylamino]nicotinamide] — 2.8-fold higher, 111 µM
- CCCCC(CC)CNC(=O)c1cccnc1NC1CCN(Cc2ccccc2)CC1 (centres unmarked) [Compound 436, 2-(1-Benzylpiperidin-4-ylamino)-N-(2-ethylhexyl)nicotinamide] — within 1.5-fold, 34 µM
- CCCCC(CC)CNC(=O)c1ccc(Cl)nc1NC1CCN(CCO)CC1 (centres unmarked) [Compound 515, 6-Chloro-N-(2-ethylhexyl)-2-[1-(2-hydroxyethyl)piperidin-4-ylamino]nicotinamide] — 1.7-fold lower, 23.8 µM
- C=CCN1CCC(Nc2ncccc2C(=O)Nc2cccc(Cl)c2)CC1 [Compound 243] — 4.3-fold higher, 170 µM
- O=C(Nc1cccc(Cl)c1)c1cccnc1N[C@@H]1CCCNC1 [Compound 269, (R)—N-(3-chlorophenyl)-2-(3-piperidylamino)nicotinamide] — 2.2-fold higher, 88.9 µM
- CC1(C)CC(Nc2ncccc2C(=O)Nc2cccc(Cl)c2)CC(C)(C)N1CCO [Compound 242, N-(3-Chlorophenyl)-2-(1-(2-hydroxyethyl)-2,2,6,6-tetramethylpiperidin-4-ylamino)nicotinamide] — 2.1-fold higher, 81.9 µM
- O=C(Nc1cccc(Cl)c1)c1cccnc1NC1CCN(C(C(=O)O)C(=O)O)CC1 [Compound 246, 2-(4-(3-(3-Chlorophenylcarbamoyl)pyridin-2-ylamino)piperidin-1-yl)maloic acid] — 2.5-fold higher, 101 µM
- CC1(C)CNc2cc(NC(=O)c3cccnc3NC3CCN(Cc4ccccc4)CC3)ccc21 [Compound 117, 2-(1-Benzylpiperidin-4-ylamino)-N-(3,3-dimethyl-2,3-dihydro-1H-indol-6-yl)nicotinamide] — 2.3-fold higher, 91.1 µM
- Cc1cnc(NC(=O)c2cccnc2NC2CCN(Cc3ccccc3)CC2)s1 [Compound 428, 2-(1-Benzylpiperidin-4-ylamino)-N-(5-methylthiazol-2-yl)nicotinamide] — 3.1-fold higher, 125 µM
- CCCCC(CC)CNC(=O)c1cccnc1NC1CC(C)(C)NC(C)(C)C1 (centres unmarked) [Compound 517, N-(2-ethylhexyl)-2-(2,2,6,6-tetramethylpiperidin-4-ylamino)nicotinamide] — within 1.5-fold, 50.7 µM
- O=C(Nc1cccc(Cl)c1)c1cccnc1NC1CCN(Cc2cccnc2)CC1 [Compound 249, N-(3-chlorophenyl)-2-[1-(pyridin-3-ylmethyl)piperidin-4-ylamino]nicotinamide] — 2.6-fold higher, 102 µM
- COc1ccc(NC(=O)c2cccnc2NC2CCN(Cc3ccccc3)CC2)cc1OC [Compound 443, 2-(1-Benzylpiperidin-4-ylamino)-N-(3,4-dimethoxyphenyl)nicotinamide] — 3.5-fold higher, 140 µM
- CCN(CC)CCN1CCC(Nc2ncccc2C(=O)Nc2cccc(Cl)c2)CC1 [Compound 244, N-(3-chlorophenyl)-2-[1-(2-N,N-diethylamino-ethyl)piperidin-4-ylamino]nicotinamide] — 2.4-fold higher, 94.6 µM
- CC1(C)CC(Nc2ncccc2C(=O)Nc2cccc(Cl)c2)CC(C)(C)N1 [Compound 201, N-(3-Chlorophenyl)-2-(2,2,6,6-tetramethylpiperidin-4-ylamino)nicotinamide] — within 1.5-fold, 54.5 µM
- O=C(Nc1cccc(Cl)c1)c1cccnc1SC1CCN(Cc2ccccc2)CC1 [Compound 290, 2-(1-Benzylpiperidin-4-ylsulfanyl)-N-(3-chlorophenyl)nicotinamide] — within 1.5-fold, 54.8 µM
- O=C(Nc1cccc(Cl)c1)c1cccnc1NN1CCN(CCO)CC1 [Compound 241, N-(3-Chlorophenyl)-2-[4-(2-hydroxyethyl)piperazin-1-ylamino)nicotinamide] — 4.1-fold higher, 164 µM
- O=C(Nc1cccc(Cl)c1)c1cccnc1N[C@H]1CCCN(Cc2ccccc2)C1 [Compound 273, (S)-2-(1-benzylpiperidin-3-ylamino)-N-(3-chlorophenyl)nicotinamide] — within 1.5-fold, 40.9 µM
- O=C(Nc1cccc(Cl)c1)c1cc(F)c(Cl)nc1NC1CCN(CCO)CC1 [Compound 312, 6-chloro-N-(3-chlorophenyl)-5-fluoro-2-[1-(2-hydroxyethyl)piperidin-4-ylamino]nicotinamide] — 1.9-fold lower, 20.7 µM
- O=C(Nc1cccc(Cl)c1)c1cccnc1N[C@@H]1CCCN(Cc2ccccc2)C1 [Compound 267, (R)-2-(1-benzylpiperidin-3-ylamino)-N-(3-chlorophenyl)nicotinamide] — 1.9-fold lower, 20.9 µM
- O=C(Nc1cccc(Cl)c1)c1cccnc1N[C@H]1CCCNC1 [Compound 275, (S)—N-(3-chlorophenyl)-2-(3-piperidylamino)nicotinamide] — 2.4-fold higher, 94.6 µM
- O=C(Nc1cccc(Cl)c1)c1cccnc1Nc1ccc(Oc2ccccc2)cc1 [Compound 104, N-(3-Chlorophenyl)-2-(4-phenoxyanilino)nicotinamide] — within 1.5-fold, 28.6 µM
